Consider three compounds from patent US8557845B2, “Substituted pyrrolo-pyrazole derivatives as kinase inhibitors” (Nerviano Medical Sciences S.R.L., priority 2002, dated 2013).

The structures appear in SMILES notation. pIC50: −log10 of the molar value.

In general, pIC50 refers to the IC50 on a negative log10 scale, so that one unit is a factor of ten.

The target of this assay is Cdk2/Cyclin A (Homo sapiens, UniProt P24941). As to the kind of experiment: Inhibition assay of Cdk2/Cyclin A activity (SPA, IC50). The following applies: tested against Cdk2/Cyclin A. In kind it is biochemical. How it is done: The inhibiting activity of putative Cdk/Cyclin inhibitors and the potency of selected compounds was determined through a method of assay based on the use of the SPA technology (Amersham Pharmacia Biotech).
The assay consists of the transfer of radioactivity labelled phosphate moiety by the kinase to a biotinylated substrate. The resulting 33P-labelled biotinylated product is allowed to bind to streptavidin-coated SPA beads (biotin capacity 130 pmol/mg), and light emitted was measured in a scintillation counter.
Inhibition Assay of Cdk2/Cyclin A Activity
4 μM in house biotinylated histone H1 (Sigma #H-5505) substrate, 10 μM ATP (0.1 microCi P^33γ-ATP), 4.2 ng Cdk2/Cyclin A complex, inhibitor in a final volume of 30 μl buffer (TRIS HCl 10 mM pH 7.5, MgCl2 10 mM, DTT 7.5 mM+0.2 mg/ml BSA) were added to each well of a 96 U bottom. After 30 min at r.t. incubation, reaction was stopped by 100 μl PBS+32 mM EDTA+0.1% Triton X-100+500 μM ATP, containing 1 mg SPA beads. Then a volume of 110 μl is transferred to Optiplate.
After 20 min. incubation for substrate capture, 100 μl 5M CsCl were added to allow statification of beads to the top of the plate and let stand 4 hours before radioactivity counting in the Top-Count instrument.
inhibitors were tested at different concentrations ranging from 0.0015 to 10 μM. Experimental data were analyzed by the computer program GraphPad Prizm using the four parameter logistic equation: y=bottom+(top−bottom)/(1+10^((log IC50−x)*slope)) where x is the logarithm of the inhibitor concentration, y is the response; y starts at bottom and goes to top with a sigmoid shape.
`CC(C)(C)C(=O)N1Cc2c(NC(=O)c3ccc(F)cc3)n[nH]c2C12CC2` [Compound 2, N-[5-(2,2-dimethylpropanoyl)-1,4,5,6-tetrahydropyrrolo[3,4-c]pyrazol-6-spirocyclopropan-3-yl]-4-fluorobenzamide] had a pIC50 of 7.60.

`CC(=O)N1Cc2c(NC(=O)c3cccc(Br)c3)n[nH]c2C1(C)C` [Reference Compound, N-[5-acetyl-6,6-dimethyl-4,6-dihydropyrrolo[3,4-c]pyrazol-3-yl]-(3-bromo)benzamide, reference compound]: the pIC50 was 5.77.

In turn, `CC(C)(C)C(=O)N1Cc2c(NC(=O)c3ccc(F)cc3)n[nH]c2C1(C)C` [Compound 1, N-[5-(2,2-dimethylpropanoyl)-6,6-dimethyl-1,4,5,6-tetrahydropyrrolo[3,4-c]pyrazol-3-yl]-4-fluorobenzamide] showed a pIC50 of 7.52.
